Assay results reported in the supplement of paper PMC10307832.

Columns and labels:
Assay in all cases: relative viability (nuclei count vs DMSO), 5 days (fraction); higher = more cells survive
Metformin + Luminespib = compound: CN(C)C(=N)NC(=N)N [Metformin] + CCNC(=O)c1noc(-c2cc(C(C)C)c(O)cc2O)c1-c1ccc(CN2CCOCC2)cc1 [Luminespib] (partner 0.01 µM)
Outline: (§1)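 A single step with final 0.05% Triton X-100, 1% formaldehyde and 1 ug/ml Hoechst fixed the cells and stained nuclei 5 days after treatment. Lung cancer cell lines in 1536-well plates had been treated by pin tool the day after seeding with one drug alone or a fixed anchor-drug dose plus five library-drug doses (not always all listed) in √10 steps, and nuclei were counted on 4× images. Relative viability is the ratio of nuclei in treated wells to nuclei in vehicle wells, taken as the median of duplicate plates.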

Apatinib + OSI-027 = compound: N#CC1(c2ccc(NC(=O)c3cccnc3NCc3ccncc3)cc2)CCCC1 [Apatinib] + COc1cccc2cc(-c3nc([C@H]4CC[C@H](C(=O)O)CC4)n4ncnc(N)c34)[nH]c12 [OSI-027] (partner 0.5 µM)
Outline: as §1

Metformin + Pictilisib = compound: CN(C)C(=N)NC(=N)N [Metformin] + CS(=O)(=O)N1CCN(Cc2cc3nc(-c4cccc5[nH]ncc45)nc(N4CCOCC4)c3s2)CC1 [Pictilisib] (partner 1 µM)
Outline: as §1

Apatinib + AZD7762 = compound: N#CC1(c2ccc(NC(=O)c3cccnc3NCc3ccncc3)cc2)CCCC1 [Apatinib] + NC(=O)Nc1cc(-c2cccc(F)c2)sc1C(=O)N[C@H]1CCCNC1 [AZD7762] (partner 0.2 µM)
Outline: as §1

Row | Cell Line | relative viability (Metformin + Luminespib; first compound 10 µM) | relative viability (Metformin + Luminespib; first compound 31.62 µM) | relative viability (Metformin + Luminespib; first compound 100 µM) | relative viability (Metformin + Luminespib; first compound 316.23 µM) | relative viability (Metformin + Luminespib; first compound 1000 µM) | relative viability (Apatinib + OSI-027; first compound 0.08 µM) | relative viability (Apatinib + OSI-027; first compound 0.253 µM) | relative viability (Apatinib + OSI-027; first compound 0.8 µM) | relative viability (Apatinib + OSI-027; first compound 2.53 µM) | relative viability (Apatinib + OSI-027; first compound 8 µM) | relative viability (Metformin + Pictilisib; first compound 10 µM) | relative viability (Metformin + Pictilisib; first compound 31.62 µM) | relative viability (Metformin + Pictilisib; first compound 100 µM) | relative viability (Metformin + Pictilisib; first compound 316.23 µM) | relative viability (Metformin + Pictilisib; first compound 1000 µM) | relative viability (Apatinib + AZD7762; first compound 0.08 µM) | relative viability (Apatinib + AZD7762; first compound 0.253 µM) | relative viability (Apatinib + AZD7762; first compound 0.8 µM) | relative viability (Apatinib + AZD7762; first compound 2.53 µM) | relative viability (Apatinib + AZD7762; first compound 8 µM)
1 | LCLC-103H | 0.934 | 1.18 | 1.06 | 0.961 | 1.04 | 0.495 | 0.477 | 0.384 | 0.401 | 0.457 | 0.713 | 0.717 | 0.711 | 0.669 | 0.607 | 0.801 | 0.741 | 0.858 | 0.7 | 0.75
2 | BEN | 0.461 | 0.475 | 0.833 | 0.361 | 0.705 | 0.283 | 0.277 | 0.3 | 0.299 | 0.317 | 0.831 | 0.754 | 0.626 | 0.625 | 0.769 | 0.529 | 0.67 | 0.694 | 0.449 | 0.621
3 | EKVX | 0.872 | 0.948 | 0.809 |  | 0.836 | 0.684 | 0.688 | 0.654 | 0.639 | 0.558 | 0.404 | 0.392 | 0.453 | 0.414 | 0.392 | 0.641 | 0.572 | 0.656 | 0.593 | 0.574
4 | NCI-H2347 | 0.328 | 1.03 |  | 0.537 | 0.791 | 0.478 | 0.354 | 0.48 | 0.361 | 0.282 | 0.665 | 0.834 | 1.02 | 0.492 | 0.659 | 0.716 | 0.791 | 0.823 | 0.654 | 0.556
5 | H3255 | 0.858 | 1.01 | 0.88 | 0.657 | 0.867 | 0.551 | 0.569 | 0.539 | 0.51 | 0.535 | 0.388 | 0.53 | 0.4 | 0.46 | 0.478 | 0.824 | 0.882 | 0.851 | 0.736 | 0.718
6 | LU99A | 0.223 | 0.233 | 0.238 | 0.269 | 0.252 | 0.317 | 0.277 | 0.259 | 0.243 | 0.263 | 0.248 | 0.295 | 0.247 | 0.27 | 0.241 | 0.413 | 0.448 | 0.269 | 0.224 | 0.229
7 | HCC-44 | 1.19 | 1.07 | 1.03 | 0.926 | 0.748 | 0.457 | 0.524 | 0.395 | 0.446 | 0.522 | 0.682 | 0.771 | 0.734 | 0.63 | 0.7 | 1.03 | 1.01 | 0.983 | 0.96 | 0.947
8 | EPLC-272H | 0.398 | 0.335 | 0.27 | 0.25 | 0.413 | 0.308 |  | 0.268 | 0.246 | 0.247 | 0.362 | 0.314 | 0.364 | 0.305 | 0.302 | 0.334 | 0.24 | 0.206 | 0.174 | 0.17
